Data reported in PMC8171083, “A nano-predator of pathological MDMX construct by clearable supramolecular gold(I)-thiol-peptide complexes achieves safe and potent anti-tumor activity” (Theranostics, 2021).
Where a SMILES comes first, the peptide text is derived from it. The star is where a group is joined. Cbz = O=C(OCc1ccccc1)*

These molecules were tested on WERI-Rb-1 cells (assay: Cell uptake analysis by flow cytometry (FITC-labelled)). Settings: pH 6.5; 3 mM Amiloride, 2 μM cytochalasin D.
Assay type: cell-based

SMILES | Effect of preincubation on Nano-FITCMG@PSI internalization
N=C(N)NC(=O)c1nc(Cl)c(N)nc1N [Amiloride] | suppressed
C=C1[C@@H](C)[C@H]2[C@H](Cc3ccccc3)NC(=O)[C@]23[C@H](OC(C)=O)/C=C/[C@@](C)(O)C(=O)[C@@H](C)C/C=C/[C@H]3[C@@H]1O [cytochalasin D] | suppressed

These molecules were tested against T1, MDMX (Homo sapiens, UniProt O15151) (assay: MDMX degradation by western blot). Settings: 200 nM Nano-MP@PSI, 12-hour preincubation of inhibitor.
T1 construct: endogenous in cells; host or cells: WERI-Rb-1 (ATCC)
T1 sequence (O15151 1-490): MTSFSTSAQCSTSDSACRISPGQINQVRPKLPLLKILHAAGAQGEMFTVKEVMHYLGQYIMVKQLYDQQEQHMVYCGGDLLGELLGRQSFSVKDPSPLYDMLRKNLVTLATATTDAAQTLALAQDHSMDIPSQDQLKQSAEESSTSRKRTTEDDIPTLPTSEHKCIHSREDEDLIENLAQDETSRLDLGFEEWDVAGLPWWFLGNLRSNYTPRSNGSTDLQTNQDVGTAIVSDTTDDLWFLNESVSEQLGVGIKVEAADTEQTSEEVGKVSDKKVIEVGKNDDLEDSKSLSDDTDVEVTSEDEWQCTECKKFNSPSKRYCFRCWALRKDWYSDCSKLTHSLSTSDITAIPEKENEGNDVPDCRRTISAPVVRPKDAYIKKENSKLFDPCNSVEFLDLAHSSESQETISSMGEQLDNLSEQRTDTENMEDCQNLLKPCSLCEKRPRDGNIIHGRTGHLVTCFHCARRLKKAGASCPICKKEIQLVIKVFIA
Assay type: cell-based
Description: The protein fraction of cell lysates was resolved by 10%SDS/PAGE before membrane
transfer. Primary antibodies were from Santa Cruz Biotechnology (p53), Abcam (p73), Proteintech
(MDMX，p21, GAPDH); secondary antibodies conjugated with horseradish peroxidase were from […]

SMILES | Effect on MDMX degradation by Nano-MP@PSI
CCN(CC)CCCC(C)Nc1ccnc2cc(Cl)ccc12 (stereo not drawn) [chloroquine] | neither a chloroquine (a lysosome inhibitor) nor NH4Cl (an autophagy inhibitor) had any effect
CC(C)C[C@@H](C=O)NC(=O)[C@H](CC(C)C)NC(=O)[C@H](CC(C)C)NC(=O)OCc1ccccc1 [MG132] (Cbz-Leu-Leu-Leu-aldehyde) | totally inhibits
Cl.N [NH4Cl] | neither a chloroquine (a lysosome inhibitor) nor NH4Cl (an autophagy inhibitor) had any effect
CCOC(=O)c1ccc(N2NC(=O)/C(=C/c3ccc([N+](=O)[O-])o3)C2=O)cc1 [PYR41] | totally inhibits
